# Reference: patent US7138541B2, “Surface coating agents” (SurModics, Inc., priority 1999, dated 2006)
# Tested on: coagulation cascade (intrinsic and common pathways of coagulation)
# Experiment: Partial thromboplastin time (PTT) test of coating agents
# Format: biochemical
# Conditions: for Extension of control PTT (in words): versus the respective solvent control, both concentrations tested
# Protocol: A useful test in determining the hemocompatibility of a reagent is the partial thromboplastin time (PTT) test. The PTT is a test of the intrinsic (factors VIII, IX, XI, and XII) and common (fibrinogen, prothrombin, factors V and X) pathways of coagulation. A mixture of plasma and phospholipid platelet substitute (rabbit brain cephalin) is recalcified and the time required for the appearance of fibrin strands measured.
# The PTT was tested to determine whether Compound I or Compound II have the ability to extend the control PTT. A test tube of rabbit brain cephalin (Sigma #RBC) in 0.85% NaCl and a test tube of 0.02 M CaCl2 was brought to 37° C. in a water bath. Dade Ci-trol coagulation control lyophilized plasma (Dade International, Inc., product no. 34224-10) was reconstituted in sterile deionized water. In 10×75 mm glass test tubes, 100 μl reconstituted plasma and 100 μl RBC were mixed and incubated at 37° C. in a water bath for 5 minutes. Next, 50 μl of sample (deionized water, a photocrosslinkable polyvinylpyrrolidone (available from SurModics, Inc., product no. PVO5), or Compound I or II) was added and mixed. While simultaneously starting a stop watch, 100 μl of 0.02 M CaCl2 was added to initiate the clotting cascade. After 40 seconds had passed, the test tubes were shaken lightly, observed for fibrin formation, and the number of seconds was recorded.
# All samples were tested in duplicate. The appropriate control PTT, depending upon what solvent in which the reagent was dissolved, was subtracted from the average PTT for the reagent to give the time the control PTT was extended.
compound,measurement,setting,value
"O=C(c1ccccc1)c1ccc(COc2cc(S(=O)(=O)[O-])cc(S(=O)(=O)[O-])c2OCc2ccc(C(=O)c3ccccc3)cc2)cc1.[K+].[K+] [Compound I, 4,5-bis(4-benzoylphenylmethyleneoxy) benzene-1,3-disulfonic acid disodium salt]",Extension of control PTT (in words),,considerably extend
"O=C(c1ccccc1)c1ccc(COc2cc(S(=O)(=O)[O-])c(OCc3ccc(C(=O)c4ccccc4)cc3)cc2S(=O)(=O)[O-])cc1.[K+].[K+] [Compound II, 2,5-bis(4-benzoylphenylmethyleneoxy) benzene-1,4-disulfonic acid dipotassium salt]",Extension of 50% IPA control PTT,"higher of the two final concentrations tested, 50% IPA control",1 h
same,Extension of control PTT (in words),,considerably extend
